Assay results published in patent publication US11365177B2, “Chemical uncouplers of respiration and methods of use thereof” (Dana-Farber Cancer Institute, Inc., priority 2017, dated 2022).
Where two headings read alike, the source gives them in different places. Peptide text beside a SMILES is read from it. * marks the point of attachment. Oleoyl = CCCCCCCC/C=C\CCCCCCCC(=O)*

Test system: C2C12 cells
Test: Measurement of cellular respiration (Seahorse), uncoupling bioactivity
Assay type: cell-based
Conditions: Mus musculus, 50 μM compound, maximal increase versus basal oligomycin-treated respiration, means SEM, n=3-6/group, read-out: % stimulation of respiration (baseline = 100%)
Method: Oligomycin was purchased from EMD Millipore, and FCCP and rotenone were purchased from Sigma. C2C12 cells were seeded at 35,000 cells/well in an XF24 cell culture microplate (V7-PS, Seahorse Bioscience) and analyzed the following day. On the day of analysis, the cells were washed once with Seahorse respiration buffer (8.3 g/l DMEM, 1.8 g/l NaCl, 1 mM pyruvate, 20 mM glucose, pen/strep), placed in 0.5 ml Seahorse respiration buffer, and incubated in a CO2-free incubator for 1 h. Port injection solutions were prepared as follows (final concentrations in assay in parentheses): 10 μM oligomycin (1 μM final), 500 μM indicated compound (50 μM final), 2 μM FCCP (0.2 μM final), and 30 μM rotenone (3 μM final). The Seahorse program was run as follows: basal measurement, 3 cycles; inject port A (oligomycin), 3 cycles; inject port B (compounds), 8 cycles; inject port C (FCCP), 3 cycles; inject port D (rotenone), 3 cycles. Each cycle consisted of mix 2 min, wait 0 min, and measure 2 min. For data expressed as a percentage of oligomycin-treated basal, the respiration at cycle 6 was normalized to 100%, and the maximum respiration at any time point between cycles 7 and 15 inclusive was used.
Tables 1-4 show uncoupling bioactivity of compounds of the disclosure with different fatty acid side chains. Respiration in C2C12 cells is shown as maximal increases versus basal oligomycin-treated respiration, which is normalized to 100%. Data are shown as means SEM, n=3-6/group.

[1] = Table 3, various fatty acid side chains

SMILES	activity at 50 µM (Table 2, various head groups)	activity at 50 µM [1]	also measured
CCCCCCCC/C=C\CCCCCCCC(=O)N[C@@H](Cc1ccccc1)C(=O)O [Compound 1, Oleoyl-L-phenylalanine]	161 ± 12%	–	–
CCCCCCCC/C=C\CCCCCCCC(=O)N[C@H](Cc1ccccc1)C(=O)O [Compound 2, Oleoyl-D-phenylalanine]	173 ± 9%	–	–
CCCCCCCC/C=C\CCCCCCCC(=O)NCCc1ccccc1 [Compound 3, N-phenethyloleamide]	104 ± 4%	–	–
CCCCCCCC/C=C\CCCCCCCC(=O)N[C@@H](CC(C)C)C(=O)O [Compound 4, Oleoyl-L-leucine]	178 ± 13%	–	–
CCCCCCCC/C=C\CCCCCCCC(=O)N[C@H](C(=O)O)[C@@H](C)CC [Compound 5, Oleoyl-L-isoleucine]	167 ± 14%	–	–
CCCCCCCC/C=C\CCCCCCCC(=O)N[C@@H](CCC(N)=O)C(=O)O [Compound 6, Oleoyl-L-glutamine]	164 ± 4%	–	–
CCCCCCCC/C=C\CCCCCCCC(=O)N1CCC[C@H]1C(=O)O [Compound 7, Oleoyl-L-proline]	182 ± 7%	–	–
CCCCCCCC/C=C\CCCCCCCC(=O)N[C@@H](Cc1c[nH]c2ccccc12)C(=O)O [Compound 8, Oleoyl-L-tryptophan]	147 ± 9%	–	–
CCCCCCCC/C=C\CCCCCCCC(=O)N[C@@H](CCCCN)C(=O)O [Compound 9, Oleoyl-L-lysine]	108 ± 4%	–	–
CCCCCCCC/C=C\CCCCCCCC(=O)N[C@@H](Cc1ccc(O)cc1)C(=O)O [Compound 10, Oleoyl-L-tyrosine]	105 ± 13%	–	–
CCCCCCCC/C=C\CCCCCCCC(=O)N[C@@H](CCC(=O)O)C(=O)O [Compound 11, Oleoyl-L-glutamic acid]	106 ± 7%	–	–
CCCCCCCC/C=C\CCCCCCCC(=O)NCC(=O)NCC(=O)O [Compound 12, Oleoylglycylglycine] (Oleoyl-Gly-Gly-OH)	206 ± 32%	–	–
CCCCCCCC/C=C\CCCCCCCC(=O)NCCC(=O)O [Compound 13, 3-Oleamidopropanoic acid]	185 ± 10%	–	–
CCCCCCCCCCCC(=O)N[C@@H](Cc1ccccc1)C(=O)O [Compound 14, Dodecanoyl-L-phenylalanine]	–	96 ± 4%	–
CCCCCCCCCCCCCCCC(=O)N[C@@H](Cc1ccccc1)C(=O)O [Compound 15, Palmitoyl-L-phenylalanine]	–	180 ± 20%	–
CCCCCCCCCCCCCCCCCC(=O)N[C@@H](Cc1ccccc1)C(=O)O [Compound 16, Stearoyl-L-phenylalanine]	–	148 ± 12%	–
CCCCCCCCCCCCCCCCCCCC(=O)N[C@@H](Cc1ccccc1)C(=O)O [Compound 17, Icosanoyl-L-phenylalanine]	–	95 ± 8%	–

SMILES	activity at 50 µM (Table 2, various head groups)	activity at 50 µM [1]	also measured
CCCCCCCCCCCCCCCCCCCCCC(=O)N[C@@H](Cc1ccccc1)C(=O)O [Compound 18, Docosanoyl-L-phenylalanine]	–	100 ± 3%	–
CCCCC/C=C\C/C=C\CCCCCCCC(=O)N[C@@H](Cc1ccccc1)C(=O)O [Compound 19, ((9Z,12Z)-Octadeca-9,12-dienoyl)-L-phenylalanine]	–	218 ± 10%	–
CCC/C=C\C/C=C\C/C=C\CCCCCCC(=O)N[C@@H](Cc1ccccc1)C(=O)O [Compound 20, ((8Z,11Z,14Z)-Octadeca-8,11,14-trienoyl)-L-phenylalanine]	–	109 ± 12%	–
CCCCCCCC/C=C/CCCCCCCC(=O)N[C@@H](Cc1ccccc1)C(=O)O [Compound 21, (E)-Octadec-9-enoyl-L-phenylalanine]	–	107 ± 3%	–
CCCCCCCCCCC/C=C\CCCCC(=O)N[C@@H](Cc1ccccc1)C(=O)O [Compound 22, (Z)-Octadec-6-enoyl-L-phenylalanine]	–	110 ± 12%	–
CCCCCC/C=C\CCCCCCCCCC(=O)N[C@@H](Cc1ccccc1)C(=O)O [Compound 23, (Z)-Octadec-11-enoyl-L-phenylalanine]	–	115 ± 8%	–
CCCCCCCC/C=C\CCCCCCCCCC(=O)N[C@@H](Cc1ccccc1)C(=O)O [Compound 24, (Z)-Icos-11-enoyl-L-phenylalanine]	–	103 ± 3%	–
CCCCC/C=C\C/C=C\C/C=C\C/C=C\CCCC(=O)N[C@@H](Cc1ccccc1)C(=O)O [Compound 25, ((5Z,8Z,11Z,14Z)-Icosa-5,8,11,14-tetraenoyl)-L-phenylalanine]	–	200 ± 12%	–
CC/C=C\C/C=C\C/C=C\C/C=C\C/C=C\CCCC(=O)N[C@@H](Cc1ccccc1)C(=O)O [Compound 26, ((5Z,8Z,11Z,14Z,17Z)-Icosa-5,8,11,14,17-pentaenoyl)-L-phenylalanine]	–	259 ± 43%	–
CC/C=C\C/C=C\C/C=C\C/C=C\C/C=C\C/C=C\CCC(=O)N[C@@H](Cc1ccccc1)C(=O)O [Compound 27, ((4Z,7Z,10Z,13Z,16Z,19Z)-Docosa-4,7,10,13,16,19-hexaenoyl)-L-phenylalanine]	–	166 ± 11%	–
CCCCCCCC/C=C\CCCCCCCCNC(=O)NCC(=O)O [Compound 28, (Z)-(Octadec-9-en-1-ylcarbamoyl)glycine]	–	–	activity at 50 µM (Table 4, urea analogs): 104 ± 3%
CCCCCCCC/C=C\CCCCCCCCNC(=O)N[C@@H](Cc1ccccc1)C(=O)O [Compound 29, (Z)-(Octadec-9-en-1-ylcarbamoyl)-L-phenylalanine]	–	–	activity at 50 µM (Table 4, urea analogs): 97 ± 5%
CCCCCCCC/C=C\CCCCCCCC(=O)N1CCCC[C@H]1C(=O)O [Compound 30, (S)-1-Oleoylpiperidine-2-carboxylic acid]	–	–	activity at 50 µM (Table 5, cyclic head groups): 174 ± 3%
CCCCCCCC/C=C\CCCCCCCC(=O)N1Cc2ccccc2C[C@H]1C(=O)O [Compound 31, (S)-2-Oleoyl-1,2,3,4-tetrahydroisoquinoline-3-carboxylic acid]	–	–	activity at 50 µM (Table 5, cyclic head groups): 187 ± 19%
CCCCCCCC/C=C\CCCCCCCC(=O)N1CCc2ccccc2C1C(=O)O (stereo not drawn) [Compound 32, 2-Oleoyl-1,2,3,4-tetrahydroisoquinoline-1-carboxylic acid]	–	–	activity at 50 µM (Table 5, cyclic head groups): 216 ± 17%
CCCCCCCC/C=C\CCCCCCCC(=O)N1c2ccccc2C[C@H]1C(=O)O [Compound 35, (S)-1-Oleoylindoline-2-carboxylic acid]	–	–	activity at 50 µM (Table 5, cyclic head groups): 146 ± 5%
